Source: ChEMBL document CHEMBL5620428, “Discovery of tetrahydroisoquinolineindole derivatives as first dual PRMT5 inhibitors/hnRNP E1 upregulators: Design, synthesis and biological evaluation” (Eur J Med Chem, 2023)
pIC50: −log10 of the molar value. Calls of active or inactive are those of the source. The calls are words filed in the database; no cut-off is given here.

Columns and labels:
[1] = target: Protein arginine N-methyltransferase 5 (Homo sapiens, UniProt O14744); assay: Inhibition of PRMT5 (unknown origin)
[2] = tested on: A549; assay: Antiproliferative activity against human A549 cells assessed as reduction in cell viability at 25 uM incubated for 24 hrs by SRB assay; format: functional, cell-based
[3] = Metabolic stability in human liver microsome assessed as half life measured upto 4 hrs in presence of NADPH by LC-MS/MS analysis; format: ADME; settings: liver microsomes
[4] = Metabolic stability in rat liver microsome assessed as half life measured upto 4 hrs in presence of NADPH by LC-MS/MS analysis; format: ADME; settings: liver microsomes
[5] = Tmax in Sprague-Dawley rat at 10 mg/kg, po measured upto 24 hrs by LC-MS/MS analysis; format: ADME, organism-based; settings: in vivo
[6] = Cmax in Sprague-Dawley rat at 10 mg/kg, po measured upto 24 hrs by LC-MS/MS analysis; format: ADME, organism-based; settings: in vivo
[7] = Half life in Sprague-Dawley rat at 10 mg/kg, po measured upto 24 hrs by LC-MS/MS analysis; format: ADME, organism-based; settings: in vivo
[8] = AUC (0 to t) in Sprague-Dawley rat at 10 mg/kg, po measured upto 24 hrs by LC-MS/MS analysis; format: ADME, organism-based; settings: in vivo
[9] = AUC (0 to infinity) in Sprague-Dawley rat at 10 mg/kg, po measured upto 24 hrs by LC-MS/MS analysis; format: ADME, organism-based; settings: in vivo

Sequence of Protein arginine N-methyltransferase 5 (O14744 whole entry): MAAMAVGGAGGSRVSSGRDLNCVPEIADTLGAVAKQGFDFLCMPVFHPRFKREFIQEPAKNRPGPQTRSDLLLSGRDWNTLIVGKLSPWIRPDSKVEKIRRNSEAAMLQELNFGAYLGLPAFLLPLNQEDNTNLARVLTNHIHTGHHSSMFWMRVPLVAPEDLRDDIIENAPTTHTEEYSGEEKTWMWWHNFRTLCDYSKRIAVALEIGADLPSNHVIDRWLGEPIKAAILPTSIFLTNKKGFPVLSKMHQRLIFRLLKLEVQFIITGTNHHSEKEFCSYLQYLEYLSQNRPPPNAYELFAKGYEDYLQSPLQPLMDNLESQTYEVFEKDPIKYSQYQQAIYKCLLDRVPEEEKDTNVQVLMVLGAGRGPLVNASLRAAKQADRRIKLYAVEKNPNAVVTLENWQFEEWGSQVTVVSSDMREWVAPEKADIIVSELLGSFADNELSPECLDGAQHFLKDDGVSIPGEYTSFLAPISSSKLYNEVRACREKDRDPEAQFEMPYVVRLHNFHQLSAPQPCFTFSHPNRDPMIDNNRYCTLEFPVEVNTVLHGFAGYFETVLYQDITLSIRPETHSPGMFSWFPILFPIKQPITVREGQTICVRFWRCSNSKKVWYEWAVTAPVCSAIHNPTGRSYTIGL

Row | pIC50 [1] | SMILES | Activity [2] | other results
1 | 5.61 | O[C@H](CN1CCc2cc(Br)ccc2C1)Cn1ccc2ccc(Br)cc21 | Active | 
2 | 5.49 | Cc1cn(C[C@H](O)CN2CCc3ccccc3C2)c2ccccc12 | Active | 
3 | 4.44 | COc1ccc2c(c1)CCN(C[C@@H](O)Cn1ccc3cc(OC)ccc31)C2 | Active | 
4 |  | CC1c2ccccc2CCN1C[C@@H](O)Cn1ccc2ccc(Br)cc21 (some centres not stated) | Active | 
5 | 5.49 | O[C@H](CN1CCc2ccc(Br)cc2C1)Cn1ccc2ccc(Br)cc21 | Active | 
6 | 5.09 | O[C@H](CN1CCc2ccccc2C1)Cn1ccc2cc(Cl)ccc21 | Active | 
7 | 6.28 | O[C@H](CN1CCc2ccccc2C1)Cn1ccc2ccc(Cl)cc21 | Active | 
8 | 4.50 | COc1ccc2c(c1)CCN(C[C@@H](O)Cn1ccc3ccc(Br)cc31)C2 | Active | 
9 | 8.10 | O=C(NC[C@H](O)CN1CCc2ccccc2C1)c1ccc2c(c1)CCN(C(=O)c1ccc(Br)cc1)C2 |  | half-life [3]: 86.9 min; half-life [4]: 10.4 min; Tmax [5]: 18 min; Cmax [6]: 0.0771 µg/mL; half-life [7]: 139 min; AUC(0-t) at 24 h [8]: 0.223 µg·h/mL; AUC(0-inf) [9]: 0.233 µg·h/mL
10 | 4.83 | COc1ccc2c(ccn2C[C@H](O)CN2CCc3ccccc3C2C)c1 (some centres not stated) | Active | 
11 | 5.39 | N#CCc1cn(C[C@H](O)CN2CCc3ccccc3C2)c2ccccc12 | Active | 
12 | 5.68 | N#Cc1cn(C[C@H](O)CN2CCc3ccccc3C2)c2ccccc12 | Active | 
13 | 4.29 | COc1ccc2c(ccn2C[C@H](O)CN2CCc3cc(Br)ccc3C2)c1 | Active | 
14 | 4.39 | COc1ccc2c(ccn2C[C@H](O)CN2CCc3cc(OC)c(OC)cc3C2)c1 | Active | 
15 | 5.77 | O[C@H](CN1CCc2ccccc2C1)Cn1ccc2c(F)cccc21 | Active | 
16 | 6.21 | Cc1ccc2c(ccn2C[C@H](O)CN2CCc3ccccc3C2)c1 | Active | 
